Starred links: 1 amine or outer side, 2 acyl side, 3 side chain; linkers in the order of their positions; H or OH if unused. Positions of bridges follow the written chain, without caps; N, C: chain ends. Residues, ends and D or L forms follow the SMILES beside them. No end group written: not given here. *: point of attachment. TBMB = c1c(C[*:1])cc(C[*:3])cc1C[*:2]; Cam = NC(=O)C*
Assays:
Kalikrein = Kalikrein (Homo sapiens, UniProt P03952); test: Peptide conjugate digestion with Kalikrein; assay type: in vitro ADME; parameters: Peptide digestion, intactness scale: key: +++: substantially intact; −: completely cleaved
Sequence of Kalikrein (P03952 20-638): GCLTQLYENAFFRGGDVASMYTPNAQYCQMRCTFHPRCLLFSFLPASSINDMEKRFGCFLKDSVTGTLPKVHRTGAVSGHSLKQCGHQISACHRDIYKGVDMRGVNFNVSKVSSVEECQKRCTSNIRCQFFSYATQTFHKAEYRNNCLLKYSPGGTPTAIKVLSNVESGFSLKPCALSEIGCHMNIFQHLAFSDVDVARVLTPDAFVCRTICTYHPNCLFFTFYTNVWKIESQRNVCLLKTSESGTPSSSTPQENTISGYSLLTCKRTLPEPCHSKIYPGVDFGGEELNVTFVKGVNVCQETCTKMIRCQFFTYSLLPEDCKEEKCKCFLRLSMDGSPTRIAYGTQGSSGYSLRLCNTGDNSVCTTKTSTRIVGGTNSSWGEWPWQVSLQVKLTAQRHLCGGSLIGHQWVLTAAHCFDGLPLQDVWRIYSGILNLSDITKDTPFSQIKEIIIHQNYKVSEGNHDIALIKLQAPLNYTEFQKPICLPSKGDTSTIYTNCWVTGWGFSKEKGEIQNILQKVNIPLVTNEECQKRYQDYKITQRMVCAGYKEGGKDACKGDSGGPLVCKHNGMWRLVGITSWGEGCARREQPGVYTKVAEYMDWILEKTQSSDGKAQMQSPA
Protocol: (§1) For methods, see Example 3 following. The proteolysis was undertaken at 37° C. Cathepsin G and kalikrein reactions were carried out in 10 mM Tris pH 7.4, 150 mM NaCl, 10 mM MgCl2, 1 mM CaCl2, 0.1% BSA, 0.01% Triton X100, 5% DMSO. Chymotrypsin reactions were carried out in 100 mM Tris pH 7.4, 10 mM CaCl2. Pronase and proteinase K reactions were carried out in 100 mM Tris pH 7.4, 0.5% SDS. Subtilisin reactions were carried out in 50 mM KH2PO4 pH 7.5. Trypsin reactions were carried out in 67 mM sodium phosphate pH 7.6. Reaction conditions with serum involve dissolving the peptide in 1×PBS (total volume 24 μl) and 6 μl of human serum added to the reaction.
(§2) Peptides (linear and conjugates) were dissolved in water at a concentration of 1 mg/ml, giving an effective concentration of ˜0.5 mM stock solutions and the concentration determined using amino acid analysis. 2 μl of peptide conjugates ([…]) (˜30 μM in reactions depending on actual molecular weight) were dissolved in reaction buffer (see below) in a total reaction volume of 30 μl, followed by the protease (typically in the range 1, 0.1 and 0.01 μg per reaction), and samples were incubated at 37° C. for 1 hr. 10 μl aliquots were quenched into 10 μl of 1% TFA. Samples were analysed by MALDI-TOF mass spectrometry to identify the fragment peaks and thus determine the site of cleavage. Where there was ambiguity as to the cleavage site samples were analysed by either by MALDI-TOF-TOF (Bruker Ultraflex 3) or by Linear Ion Trap (Thermoscientific Orbitrap XL) to determine accurate masses.

Cathepsin G = biological target: T1, Cathepsin G (Homo sapiens, UniProt P08311); test: Peptide conjugate digestion with Cathepsin G; assay type: in vitro ADME; further: key: +++: substantially intact; −: completely cleaved
T1 sequence (P08311 21-244): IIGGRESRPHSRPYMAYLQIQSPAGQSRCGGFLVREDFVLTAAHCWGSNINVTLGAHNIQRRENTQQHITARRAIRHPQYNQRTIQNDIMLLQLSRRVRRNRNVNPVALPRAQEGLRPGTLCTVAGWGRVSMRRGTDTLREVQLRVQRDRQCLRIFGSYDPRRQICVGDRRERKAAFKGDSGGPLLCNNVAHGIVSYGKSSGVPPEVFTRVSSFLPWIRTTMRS
Protocol: as §1, §2

Proteinase K = Proteinase K (Parengyodontium album, UniProt P06873); test: Peptide conjugate digestion with Proteinase K; assay type: in vitro ADME; parameters: key: +++: substantially intact; −: completely cleaved
Sequence of Proteinase K (P06873 106-384): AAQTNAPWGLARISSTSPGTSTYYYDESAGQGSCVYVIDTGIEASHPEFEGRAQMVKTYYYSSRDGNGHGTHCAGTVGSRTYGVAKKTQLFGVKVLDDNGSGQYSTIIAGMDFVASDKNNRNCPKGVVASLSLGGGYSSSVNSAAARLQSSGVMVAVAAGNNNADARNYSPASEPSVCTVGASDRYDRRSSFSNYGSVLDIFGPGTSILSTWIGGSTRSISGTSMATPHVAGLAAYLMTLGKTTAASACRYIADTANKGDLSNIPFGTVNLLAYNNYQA
Protocol: as §1, §2

Pronase = test: Peptide conjugate digestion with Pronase; assay type: in vitro ADME; further: key: +++: substantially intact; −: completely cleaved
Protocol: as §1, §2

[1] = Peptide conjugate digestion with Chymotrypsin; assay type: in vitro ADME; details: isolated enzyme chymotrypsin, pH 7.4; chymotrypsin 0.1 μg, after 1 hr; read-out: fraction cleaved by chymotrypsin; on Peptide digestion, intactness scale: key: +++: substantially intact; −: completely cleaved
Protocol: as §1, §2

Chymotrypsin = test: Peptide conjugate digestion with Chymotrypsin; assay type: in vitro ADME; on Peptide digestion, intactness scale: key: +++: substantially intact; −: completely cleaved
Protocol: as §1, §2

[2] = Resistance to proteases in serum; assay type: in vitro ADME, human; details: 37° C.
Protocol: as §1

Trypsin = test: Peptide conjugate digestion with Trypsin; assay type: in vitro ADME; on Peptide digestion, intactness scale: key: +++: substantially intact; −: completely cleaved
Protocol: as §1, §2

Subtilisin = test: Peptide conjugate digestion with Subtilisin; assay type: in vitro ADME; further: key: +++: substantially intact; −: completely cleaved
Protocol: as §1
(§3) Peptides (linear and conjugates) were dissolved in water at a concentration of 1 mg/ml, giving an effective concentration of ˜0.5 mM stock solutions and the concentration determined using amino acid analysis. […] Samples were analysed by MALDI-TOF mass spectrometry to identify the fragment peaks and thus determine the site of cleavage. Where there was ambiguity as to the cleavage site samples were analysed by either by MALDI-TOF-TOF (Bruker Ultraflex 3) or by Linear Ion Trap (Thermoscientific Orbitrap XL) to determine accurate masses.

MDM2 (res 2-125) = MDM2 (res 2-125) (Homo sapiens, UniProt Q00987); test: Fluorescence anisotropy titration, affinity for MDM2; assay type: binding
Sequence of MDM2 (res 2-125) (Q00987 2-125, species assumed): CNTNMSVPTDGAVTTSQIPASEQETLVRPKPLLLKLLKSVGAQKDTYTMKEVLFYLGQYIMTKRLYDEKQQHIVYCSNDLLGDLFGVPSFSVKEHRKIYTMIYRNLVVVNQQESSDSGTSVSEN
Protocol: Titration experiments were run on a Horiba Jobin Yvon fluorimeter equipped with the Hamilton Microlab titrator controlled by laboratory software. […] The slit widths for excitation and emission were 5 nm and 15 nm and the integration time 10 s was used for each measurement. The intrinsic fluorescence of tryptophan in peptides 10, 48 was used to measure their binding affinity for MDM2 (res 2-125). The experiments were performed at 23° C. in PBS, 5 mM DTT. Usually 250 μl of MDM2 (150 μM) was titrated into 1.2 ml of peptide (1 μM). Titration data were analyzed with a standard 1:1 binding model by using the quadratic solution to the equilibrium Kd=[A][B]/[AB]. […] The fitting equation contained an extra term to account for linear drift.

[3] = biological target: T2, biotinylated MDM2 peptide (res 2-125) (Homo sapiens, UniProt Q00987); test: Phage ELISA, binding to MDM2; details: 5 mM DTT 20 min, then chymotrypsin 50 μg/ml 2 min
T2 construct: biotinylated MDM2 peptide (res 2-125)
T2 sequence (Q00987 2-125, species assumed): as above
Protocol: 0.6 μg/mL of biotinylated MDM2 peptide (res 2-125) was immobilized on a streptavidin-coated plate (Roche). Plate was blocked with PBSM (but 4% in milk powder) and linear or TBMB-conjugated phage (10^7 TU/well in PBSM in the presence or absence of 5 mM DTT) was incubated on the plate for 50 min at room temperature. Similarly, phage was first reduced in 5 mM DTT for 20 min, treated with chymotrypsin (50 μg/ml in PBS) for 2 min, mixed with PBSM (final concentration) and incubated on the plate for 50 min at room temperature. Phage was detected using an anti-M13-HRP monoclonal antibody (1:5000, Amersham).

various proteases = assay type: in vitro ADME
Protocol: as §1, §3

[4] = mass spectrometric analysis of cleaved species
[5] = Kd, peptide+MDM2, λex=295 nm, 23° C., PBS, 5 mM DTT
[6] = affinity for MDM2, synthetic peptide, sub-micromolar, stated range

With CC(C)C[C@@H]1NC(=O)[C@H](C)NC(=O)[C@H](CCC(=O)O)NC(=O)[C@H](CC(=O)O)NC(=O)[C@H](C)NC(=O)[C@@H]2CCCN2C(=O)[C@@H]2CSCc3cc(cc(c3)CSC[C@@H](C(=O)NCC(=O)O)NC1=O)CSC[C@H](NC(=O)[C@H](C)N)C(=O)N[C@@H](CO)C(=O)N[C@@H](CC(=O)O)C(=O)N[C@@H](CCCNC(=N)N)C(=O)N[C@@H](Cc1ccccc1)C(=O)N[C@@H](CCCNC(=N)N)C(=O)N[C@@H](CC(N)=O)C(=O)N2 [PK15-TBMB] (HELM PEPTIDE1{A.C.S.D.R.F.R.N.C.P.A.D.E.A.L.C.G}|CHEM1{[c1c(C[*:1])cc(C[*:3])cc1C[*:2]]}$PEPTIDE1,CHEM1,2:R3-1:R1|PEPTIDE1,CHEM1,9:R3-1:R2|PEPTIDE1,CHEM1,16:R3-1:R3$$$V2.0) the “Peptide digestion, intactness scale” value (Kalikrein; Kalikrein 0.01, 37° C.) was “+++”, the “Peptide digestion, intactness scale” value (Kalikrein; Kalikrein 0.1, 37° C.) was “+++” and the “Peptide digestion, intactness scale” value (Kalikrein; Kalikrein 1, 37° C.) was “+++”. For the same molecule, the “factor of resistance, TBMB conjugate versus linear” value (Kalikrein; attack by kallikrein, by comparing different concentrations of enzyme) was “about 100 fold”, the “Peptide digestion, intactness scale” value (Cathepsin G; Cathepsin G 0.01, 37° C.) was “+++” and the “Peptide digestion, intactness scale” value (Cathepsin G; Cathepsin G 0.1, 37° C.) was “+++”. For the same molecule, the “Peptide digestion, intactness scale” value (Proteinase K; Proteinase K 0.01, 37° C.) was “+++”, the “Peptide digestion, intactness scale” value (Proteinase K; Proteinase K 0.1, 37° C.) was “+++” and the “Peptide digestion, intactness scale” value (Proteinase K; Proteinase K 1, 37° C.) was “+++”. For the same molecule, the “Peptide digestion, intactness scale” value (Pronase; Pronase 0.01, 37° C.) was “+++”, the “Peptide digestion, intactness scale” value (Pronase; Pronase 0.1, 37° C.) was “+++” and the metabolised at 1 h, 20 μM [1] was ~50%. The cleavage by chymotrypsin (Chymotrypsin; 1 μg chymotrypsin, after 1 hour) was “completely cleaved”, the “Peptide digestion, intactness scale” value (Chymotrypsin; Chymotrypsin 0.01, 37° C.) was “+++” and the “Peptide digestion, intactness scale” value (Chymotrypsin; Chymotrypsin 0.1, 37° C.) was “+++”. The “Peptide digestion, intactness scale” value (Chymotrypsin; Chymotrypsin 1, 37° C.) was “+++”, the chymotrypsin cleavage site (Chymotrypsin; [4]) was “same cleavage sites” and the “time for which proteolysis in serum is resisted” value ([2]; later times not yet tested) was “at least 48 hours”. For the same molecule, the “Peptide digestion, intactness scale” value (Trypsin; Trypsin 0.01, 37° C.) was “+++”, the “Peptide digestion, intactness scale” value (Trypsin; Trypsin 10, 37° C.) was “−” and the trypsin cleavage sites (Trypsin; [4]) was “same cleavage sites”. For the same molecule, the “time to complete cleavage at R7” value (Trypsin; trypsin 0.1 μg) was ≤ 5 min, the “Peptide digestion, intactness scale” value (Subtilisin; Subtilisin 0.009, 37° C.) was “+++” and the “Peptide digestion, intactness scale” value (Subtilisin; Subtilisin 9, 37° C.) was “−”.

With CC(C)C[C@@H]1NC(=O)[C@H](CCC(=O)O)NC(=O)[C@@H](NC(=O)[C@@H](N)CO)CSCc2cc3cc(c2)CSC[C@H](NC(=O)[C@H](CCCCN)NC(=O)[C@@H]2CCCN2C(=O)[C@H](CC(N)=O)NC(=O)[C@H](Cc2c[nH]c4ccccc24)NC1=O)C(=O)N[C@@H](CCCNC(=N)N)C(=O)N[C@@H](CC(C)C)C(=O)N[C@@H](CO)C(=O)N1CCC[C@H]1C(=O)N[C@@H](Cc1ccccc1)C(=O)N[C@@H](CCC(=O)O)C(=O)N[C@H](C(=O)N[C@@H](CCCCN)C(=O)NCC(=O)O)CSC3 [PEP10] (HELM PEPTIDE1{S.C.E.L.W.N.P.K.C.R.L.S.P.F.E.C.K.G}|CHEM1{[c1c(C[*:1])cc(C[*:3])cc1C[*:2]]}$PEPTIDE1,CHEM1,2:R3-1:R1|PEPTIDE1,CHEM1,9:R3-1:R2|PEPTIDE1,CHEM1,16:R3-1:R3$$$V2.0) the Kd (MDM2 (res 2-125); [5]) was 267 nM, the Kd (MDM2 (res 2-125); [6]) was 250 to 750 nM and the “binding to MDM2 after proteolysis” value [3] was “resistant to proteolysis”.

For CC(C)C[C@H](NC(=O)[C@H](C)NC(=O)[C@H](CCC(=O)O)NC(=O)[C@H](CC(=O)O)NC(=O)[C@H](C)NC(=O)[C@@H]1CCCN1C(=O)[C@H](CSCC(N)=O)NC(=O)[C@H](CC(N)=O)NC(=O)[C@H](CCCNC(=N)N)NC(=O)[C@H](Cc1ccccc1)NC(=O)[C@H](CCCNC(=N)N)NC(=O)[C@H](CC(=O)O)NC(=O)[C@H](CO)NC(=O)[C@H](CSCC(N)=O)NC(=O)[C@H](C)N)C(=O)N[C@@H](CSCC(N)=O)C(=O)NCC(=O)O [PK15 linear, AC*SDRFRNC*PADEALC*G] (H-AC(Cam)SDRFRNC(Cam)PADEALC(Cam)G-OH), the “Peptide digestion, intactness scale” value (Cathepsin G; Cathepsin G 0.1, 37° C.) was “−”, the “Peptide digestion, intactness scale” value (Cathepsin G; Cathepsin G 1 (μg per reaction), 37° C.) was “−” and the “Peptide digestion, intactness scale” value (Pronase; Pronase 0.01, 37° C.) was “+++”. For the same molecule, the “Peptide digestion, intactness scale” value (Pronase; Pronase 10, 37° C.) was “−”, the “Peptide digestion, intactness scale” value (Chymotrypsin; Chymotrypsin 0.01, 37° C.) was “+++” and the “Peptide digestion, intactness scale” value (Chymotrypsin; Chymotrypsin 1, 37° C.) was “−”. For the same molecule, the “Peptide digestion, intactness scale” value (Chymotrypsin; Chymotrypsin 10, 37° C.) was “−”, the “time within which digested by the proteases in serum” value [2] was ≤ 2 h and the “Peptide digestion, intactness scale” value (Trypsin; Trypsin 1, 37° C.) was “−”. For the same molecule, the “Peptide digestion, intactness scale” value (Trypsin; Trypsin 10, 37° C.) was “−”.

In the case of CC(C)[C@@H]1NC(=O)[C@@H](NC(=O)[C@@H](N)CO)CSCc2cc3cc(c2)CSC[C@H](NC(=O)[C@H]([C@@H](C)O)NC(=O)[C@H](Cc2c[nH]c4ccccc24)NC(=O)CNC(=O)[C@H](Cc2ccccc2)NC(=O)[C@H](CCCNC(=N)N)NC1=O)C(=O)N[C@@H](CC(=O)O)C(=O)N[C@@H](CC(N)=O)C(=O)N[C@@H](CO)C(=O)N[C@@H](Cc1c[nH]c2ccccc12)C(=O)N[C@@H](Cc1c[nH]cn1)C(=O)NCC(=O)N[C@H](C(=O)N[C@@H](CCCCN)C(=O)NCC(=O)O)CSC3 [PEP48] (HELM PEPTIDE1{S.C.V.R.F.G.W.T.C.D.N.S.W.H.G.C.K.G}|CHEM1{[c1c(C[*:1])cc(C[*:3])cc1C[*:2]]}$PEPTIDE1,CHEM1,2:R3-1:R1|PEPTIDE1,CHEM1,9:R3-1:R2|PEPTIDE1,CHEM1,16:R3-1:R3$$$V2.0), the Kd (MDM2 (res 2-125); Kd, peptide+MDM2, λex=280 nm) is reported as 760 nM, the Kd (MDM2 (res 2-125); [5]) is reported as 567 nM and the Kd (MDM2 (res 2-125); [6]) is reported as 250 to 750 nM. For the same molecule, the “binding to MDM2 after proteolysis” value [3] was “resistant to proteolysis”.

In the case of “CG4L1-PK15L1 TBMB: bicyclic CG4L1-PK15L1 (WO 2009/098450) (ALCIFDLGFCSDRFRNCPADE; linker 3-10-17 via TBMB)”, the “factor of resistance, TBMB conjugate versus linear” value (various proteases) is reported as 1-100 fold.
